Laboratory results: ChEMBL document CHEMBL5505979, “Novel aminothiazoximone-corbelled ethoxycarbonylpyrimidones with antibiofilm activity to conquer Gram-negative bacteria through potential multitargeting effects” (Eur J Med Chem, 2024)
Values after ≈ are worked out from the molar mass of the structure shown. Active and inactive are the calls of the source. No cut-off for these calls is given here.

Key:
Staphylococcus aureus [1] = experiment: Anti-bacterial activity against methicillin-resistant Staphylococcus aureus N315 assessed as inhibition of bacterial growth; assay type: functional; conditions: Staphylococcus aureus, N315; read-out: MIC
Staphylococcus aureus [2] = experiment: Anti-bacterial activity against Staphylococcus aureus ATCC 1708 assessed as inhibition of bacterial growth; assay type: functional; conditions: Staphylococcus aureus, ATCC 1708; read-out: MIC
Staphylococcus aureus [3] = experiment: Anti-bacterial activity against Staphylococcus aureus ATCC 6538 assessed as inhibition of bacterial growth; assay type: functional
Candida albicans = experiment: Anti-fungal activity against Candida albicans 90023 assessed as inhibition of fungal growth; assay type: functional
Acinetobacter baumannii [4] = experiment: Anti-bacterial activity against Acinetobacter baumannii assessed as inhibition of bacterial growth measured upto 9 hrs; assay type: functional, organism-based
Escherichia coli [5] = experiment: Anti-bacterial activity against Escherichia coli ATCC 25922 assessed as inhibition of bacterial growth measured upto 9 hrs; assay type: functional, organism-based
[6] = Hemolysis in human RBC assessed as hemolysis rate at effective bactericidal concentration for 3 hrs; assay type: toxicity, cell-based, Erythrocyte; conditions: red blood cells, read-out: Activity
[7] = Cytotoxicity against human L02 cells assessed as cell viability at effective concentration measured after 24 hrs; assay type: toxicity, cell-based; conditions: read-out: Activity
Escherichia coli [8] = experiment: Antibiofilm activity against Escherichia coli ATCC 25922 assessed as inhibition rate of bio-film formation at 8 times of MIC concentration by Crystal violet assay relative to control; assay type: functional
Acinetobacter baumannii [9] = experiment: Antibiofilm activity against Acinetobacter baumannii assessed as inhibition rate of bio-film formation at 8 times of MIC concentration in presence of sodium dodecyl sulfate by Crystal violet assay relative to control; assay type: functional, organism-based
Escherichia coli [10] = experiment: Reduction of biofilm virulent factors in Escherichia coli ATCC 25922 assessed as decrease in hydrophobicity index; assay type: functional, organism-based
Escherichia coli [11] = experiment: Reduction of biofilm virulent factors in Escherichia coli ATCC 25922 assessed as decrease in extracellular polymeric substances (EPS) by measuring optical density at 490 nm at 1 times of MIC concentration by congo red binding assay (reference value: 0.028 to 0.031); assay type: functional
Acinetobacter baumannii [12] = experiment: Anti-bacterial activity against Acinetobacter baumannii assessed as growth inhibition by measuring optical density measured at 2 time of MIC in presence of 1/2 times of MIC of norfloxacin by Checkerboard assay (reference value: 0.155); assay type: functional
Acinetobacter baumannii [13] = experiment: Anti-bacterial activity against Acinetobacter baumannii assessed as growth inhibition by measuring optical density measured at 2 time of MIC in presence of 1 times of MIC of norfloxacin by Checkerboard assay (reference value: 0.155); assay type: functional
Acinetobacter baumannii [14] = experiment: Anti-bacterial activity against Acinetobacter baumannii assessed as growth inhibition by measuring optical density measured at 1/2 time of MIC in presence of 1/8 times of MIC of norfloxacin by Checkerboard assay (reference value: 0.152); assay type: functional
Acinetobacter baumannii [15] = experiment: Anti-bacterial activity against Acinetobacter baumannii assessed as growth inhibition by measuring optical density measured at 1/2 time of MIC in presence of 2 times of MIC of norfloxacin by Checkerboard assay (reference value: 0.152); assay type: functional
Acinetobacter baumannii [16] = experiment: Anti-bacterial activity against Acinetobacter baumannii assessed as growth inhibition by measuring optical density measured at 1/4 time of MIC in presence of 1/2 times of MIC of norfloxacin by Checkerboard assay (reference value: 0.152); assay type: functional
Escherichia coli [17] = experiment: Anti-bacterial activity against Escherichia coli ATCC 25922 assessed as growth inhibition by measuring optical density measured at 4 time of MIC in presence of 1/8 times of MIC of norfloxacin by Checkerboard assay (reference value: 0.125); assay type: functional
Escherichia coli [18] = experiment: Anti-bacterial activity against Escherichia coli ATCC 25922 assessed as growth inhibition by measuring optical density measured at 4 time of MIC in presence of 1/4 times of MIC of norfloxacin by Checkerboard assay (reference value: 0.125); assay type: functional
Escherichia coli [19] = experiment: Anti-bacterial activity against Escherichia coli ATCC 25922 assessed as growth inhibition by measuring optical density measured at 4 time of MIC in presence of 1 times of MIC of norfloxacin by Checkerboard assay (reference value: 0.125); assay type: functional
Escherichia coli [20] = experiment: Anti-bacterial activity against Escherichia coli ATCC 25922 assessed as growth inhibition by measuring optical density measured at 2 time of MIC in presence of 1/2 times of MIC of norfloxacin by Checkerboard assay (reference value: 0.128); assay type: functional
Escherichia coli [21] = experiment: Anti-bacterial activity against Escherichia coli ATCC 25922 assessed as growth inhibition by measuring optical density measured at 1 time of MIC in presence of 1 times of MIC of norfloxacin by Checkerboard assay (reference value: 0.125); assay type: functional
Escherichia coli [22] = experiment: Anti-bacterial activity against Escherichia coli ATCC 25922 assessed as growth inhibition by measuring optical density measured at 1 time of MIC in presence of 2 times of MIC of norfloxacin by Checkerboard assay (reference value: 0.125); assay type: functional
Escherichia coli [23] = experiment: Anti-bacterial activity against Escherichia coli ATCC 25922 assessed as growth inhibition by measuring optical density measured at 1/2 time of MIC in presence of 1 times of MIC of norfloxacin by Checkerboard assay (reference value: 0.124); assay type: functional
Escherichia coli [24] = experiment: Anti-bacterial activity against Escherichia coli ATCC 25922 assessed as growth inhibition by measuring optical density measured at 1/4 time of MIC in presence of 1/4 times of MIC of norfloxacin by Checkerboard assay (reference value: 0.128); assay type: functional
Escherichia coli [25] = experiment: Anti-bacterial activity against Escherichia coli ATCC 25922 assessed as growth inhibition by measuring optical density measured at 1/4 time of MIC in presence of 1/2 times of MIC of norfloxacin by Checkerboard assay (reference value: 0.128); assay type: functional
Cell membrane [26] = experiment: Induction of membrane damage in Escherichia coli ATCC 25922 assessed as increase in fluorescence intensity at 1 to 4 times of MIC concentration measured after 90 mins by DiSC3 fluorescent probe assay; assay type: cell membranes
Acinetobacter baumannii [27] = experiment: Induction of membrane depolarization Acinetobacter baumannii assessed as increase in red fluorescence intensity at 0.5 to 8 times of MIC concentration measured after 6 hrs by […] assay; assay type: functional, organism-based
Cell membrane [28] = experiment: Induction of physical destruction of cell membrane in Acinetobacter baumannii assessed as leakage of protein at 1/4 to 8 times of MIC concentration by Coomassie blue quantitative assay; assay type: cell membranes
Acinetobacter baumannii [29] = experiment: Reduction in metabolic activity of Acinetobacter baumannii assessed as decrease in fluorescence intensity at 1/4 to 8 times of MIC measured after 6 hrs by resazurin sodium salt assay; assay type: functional, organism-based
Escherichia coli [30] = experiment: Reduction in metabolic activity of Escherichia coli ATCC 25922 assessed as decrease in fluorescence intensity at 1/4 to 8 times of MIC measured after 6 hrs by resazurin sodium salt assay; assay type: functional, organism-based
Acinetobacter baumannii [31] = experiment: Reduction in metabolic activity of Acinetobacter baumannii assessed as biomass of the fluorescent pink change to non-fluorescent blue; assay type: functional, organism-based
Escherichia coli [32] = experiment: Reduction in metabolic activity of Escherichia coli ATCC 25922 assessed as decrease in bacterial lactate dehydrogenase activity at 0.5 to 8 times of MIC concentration; assay type: functional, organism-based
Acinetobacter baumannii [33] = experiment: Induction of intracellular ROS accumulation in Acinetobacter baumannii assessed as fluorescence intensity at 1/4 to 2 times of MIC by DCFH-DA staining based assay; assay type: functional, organism-based

CCCCc1nc(Cl)c(C2NC(=O)NC(CN3CCN(C(=O)/C(=N/OC)c4csc(N)n4)CC3)=C2C(=O)OCC)[nH]1 (centres undefined)
MIC (Staphylococcus aureus [1]): 26 µM (≈ 15.8 µg/mL)
MIC (Staphylococcus aureus [2]): 13 µM (≈ 7.91 µg/mL)
MIC (Staphylococcus aureus [3]): 7 µM (≈ 4.26 µg/mL)
MIC (Candida albicans): 53 µM (≈ 32.2 µg/mL)
Activity (Acinetobacter baumannii [4]): Dose-Dependent Effect
Activity (Escherichia coli [5]): Dose-Dependent Effect
hemolysis at 3 h [6]: < 5%
viability at 24 h [7]: > 95%
inhibition (INH) (Escherichia coli [8]): >70.2%
Activity (Acinetobacter baumannii [9]): Active
Activity (Escherichia coli [10]): Active
OD (Escherichia coli [11]): 0.071
OD (Acinetobacter baumannii [12]): 0.05
OD (Acinetobacter baumannii [13]): 0.052
OD (Acinetobacter baumannii [14]): 0.117
OD (Acinetobacter baumannii [15]): 0.051
OD (Acinetobacter baumannii [16]): 0.125
OD (Escherichia coli [17]): 0.108
OD (Escherichia coli [18]): 0.051
OD (Escherichia coli [19]): 0.051
OD (Escherichia coli [20]): 0.057
OD (Escherichia coli [21]): 0.056
OD (Escherichia coli [22]): 0.051
OD (Escherichia coli [23]): 0.082
OD (Escherichia coli [24]): 0.127
OD (Escherichia coli [25]): 0.125
Activity (Cell membrane [26]): inactive
Activity (Acinetobacter baumannii [27]): Active
Activity (Cell membrane [28]): Active
Activity (Acinetobacter baumannii [29]): Active
Activity (Escherichia coli [30]): Active
Activity (Acinetobacter baumannii [31]): Active
Activity (Escherichia coli [32]): Active
Activity (Acinetobacter baumannii [33]): Active
